Patent US11259522B2, “Control of resistant pests” (priority 2017, dated 2022)
Converted amounts (≈) assume the structure as drawn. “And” between values parts separate entries of the source, which are not always exact repeats. Equal values may be shown once. Read-outs that look alike come from different tables or passages of the source.

Key:
[1] = test system: Tribolium castaneum susceptible strain QTC4; assay: Grain protectant bioassay on treated wheat, T. castaneum susceptible; type: in vivo; conditions: for Progeny reduction (%): vs untreated control
[2] = test system: Aedes aegypti Liverpool strain (insecticide susceptible, LVP) L3 larvae; assay: Mosquito larval dose response assay, LVP strain; conditions: read-out: Lethal Concentration (LC50) LVP Strain
[3] = test system: Aedes aegypti PRS Puerto Rican strain (synthetic pyrethroid resistant) L3 larvae; assay: Mosquito larval dose response assay, PRS strain; conditions: read-out: Lethal Concentration (LC50) PRS Strain
[4] = test system: Sitophilus oryzae strain QSO393 (resistant to fenitrothion); assay: Grain protectant bioassay on treated wheat, S. oryzae resistant; type: in vivo; conditions: for Progeny reduction (%): vs untreated control
[5] = test system: Rhyzopertha dominica strain QRD1440 (resistant to OP protectants and pyrethroids); assay: Grain protectant bioassay on treated wheat, resistant lesser grain borer; conditions: for Live adult progeny: mean ± SE; for Progeny reduction (%): vs untreated control
[6] = test system: Oryzaephilus surinamensis susceptible strain VOS48; assay: Grain protectant bioassay on treated wheat, O. surinamensis susceptible; type: in vivo; conditions: for Progeny reduction (%): vs untreated control
[7] = test system: Cryptolestes ferrugineus susceptible strain QCF31; assay: Grain protectant bioassay on treated wheat, C. ferrugineus susceptible; type: in vivo; conditions: for Progeny reduction (%): vs untreated control
[8] = test system: Halotydeus destructor susceptible population; assay: Coated plastic vial bioassay, redlegged earth mite, susceptible population; type: in vivo; conditions: for mortality at 300 µg/mL: 300 mg a.i./L
Experimental: The efficacy of flavesone against H. destructor was assessed using the glass vial technique developed by Hoffmann et al. (1997, Exp. Appl. Acarol., 21:151-162), adapted for plastic vials. A susceptible population of mites was collected from capeweed (Arctotheca calendula) at a Victorian site (37° 40′33″S, 145° 07′ 45″E) that had no known history of insecticide application. Following collection, samples were stored in small plastic containers with leaf material and paper towel to absorb excess moisture. Containers were kept at 4° C. prior to testing.
The test compositions included 0.1% Tween 20 non-ionic surfactant to aid the spread of insecticides when coating plastic vials. This concentration of Tween 20 has been previously shown to have no toxic effect on H. destructor. For each insecticide concentration tested, 3, 10, 30, 100, 300, 1000, 3000 and 10000 mg a.i./L (ppm), approximately 10 mL of solution was poured into a 15 mL plastic vial and swirled to ensure a complete coating, with excess liquid removed. Eight vials were coated per concentration and were left to dry overnight. Control vials were treated in the same way but with water used in place of test composition.
Eight susceptible H. destructor mites were then placed into each vial along with a leaf of common vetch (Vicia sativa). The leaf was added to provide food and increase humidity. Vials were then sealed with a lid and placed at 18° C. After 4, 6, 8 and 24 hours of exposure, the mites were scored as alive (moving freely), incapacitated (inhibited movement), or dead (no movement over a 5 second period). […]
The data produced in the assays were assessed for concentrations that caused 50, 90 and 99% mortality (lethal concentration, LC), together with 95% confidence intervals (CIs) and were estimated from observations of mortality after 24 hours exposure using a binomial logistic regression (Robertson & Preisler, 1992, Pesticide Bioassays with Arthropods. CRC: Boca Raton; Venables & Ripley, 2002, Modern Applied Statistics with S. Springer: New York). Population differences were tested by comparing the change in model deviance with and without the population factor (different regression intercepts for each population). Differences in regression slopes between populations were tested by comparing the change in model deviance with and without the population×dose interaction term. The resistance ratio of the insecticide-resistant population was estimated as the ratio of its LC50 to that of the susceptible population. All analyses were performed using R 3.3. (R Core Team 2017, R: A language and environment for statistical computing. R Foundation for Statistical Computing, Vienna, Austria. http://www.R-project.org).

[9] = test system: Cryptolestes ferrugineus strain QCF73 (resistant to phosphine); assay: Grain protectant bioassay on treated wheat, C. ferrugineus resistant; type: in vivo; conditions: for Progeny reduction (%): vs untreated control
[10] = test system: Rhyzopertha dominica susceptible strain QRD14; assay: Grain protectant bioassay on treated wheat, susceptible lesser grain borer; type: in vivo; conditions: for 14 day Adult Mortality No. dead/total / F1 Progeny count No. dead/total: Example 8, QQRD14, replicates A, B, C; for Progeny reduction (%): vs untreated control
Excerpt: The experiment of Example 5 was repeated using a laboratory reared susceptible strain QQRD14 of R. dominica and different concentrations of flavesone to determine efficacy.

[11] = Example 6, QRD1440, 25 ppm on wheat, replicates A, B, C
[12] = Example 6, QRD1440, 50 ppm on wheat, replicates A, B, C
[13] = Example 6, QRD1440, 75 ppm on wheat, replicates A, B, C
[14] = Example 7, QRD1440, 60 ppm on wheat, replicates A, B, C
[15] = Rhyzopertha dominica, in Triticum aestivum, 336 h, read-out: Adult mortality (%)
[16] = Cryptolestes ferrugineus, 336 h, 25 mg/kg, 2 weeks, mean ± SE, read-out: Adult mortality (%)
[17] = Cryptolestes ferrugineus, 336 h, 60 mg/kg, 2 weeks, mean ± SE, read-out: Adult mortality (%)
[18] = Susceptible population, 24 hours exposure

CC(C)C(=O)C1C(=O)C(C)(C)C(=O)C(C)(C)C1=O [Flavesone, 1-isobutyroyl-3,3,5,5-tetramethylcyclohexane-2,4,6-trione]
Live adult progeny ([1]; 25 mg/kg, mean ± SE): 120.0 ± 16.1
Live adult progeny ([1]; 60 mg/kg, mean ± SE): 65.0 ± 3.2
Progeny reduction (%) ([1]; 60 mg/kg): 45.2%
Progeny reduction (%) ([1]; 60 mg/kg, listed as flavesone): 45%
mortality at 25 mg/kg ([1]; Tribolium castaneum, 336 h, 25 mg/kg, 2 weeks, mean ± SE, read-out: Adult mortality (%)): 0%
mortality at 60 mg/kg ([1]; Tribolium castaneum, 336 h, 60 mg/kg, 2 weeks, mean ± SE, read-out: Adult mortality (%)): 0%
LC50 ([2]; 24 h): 40.9 µg/mL (≈ 162 µM)
LC50 ([2]; 48 h): 40.5 µg/mL (≈ 161 µM)
LC50 ([2]; 72 h): 39.7 µg/mL (≈ 157 µM)
LC50 ([3]; 24 h): 40.9 µg/mL (≈ 162 µM)
LC50 ([3]; 48 h): 40.5 µg/mL (≈ 161 µM)
LC50 ([3]; 72 h): 39.7 µg/mL (≈ 157 µM)
Live adult progeny ([4]; 25 mg/kg, mean ± SE): 572.7 ± 100.9
Progeny reduction (%) ([4]; 25 mg/kg): 6.1%
Live adult progeny ([4]; 60 mg/kg, mean ± SE): 430.0 ± 51.0
Progeny reduction (%) ([4]; 60 mg/kg): 29.5%
Progeny reduction (%) ([4]; 60 mg/kg, listed as flavesone): 29%
mortality at 25 mg/kg ([4]; Sitophilus oryzae, 336 h, 25 mg/kg, 2 weeks, mean ± SE, read-out: Adult mortality (%)): 0.7 ± 0.7%
mortality at 60 mg/kg ([4]; Sitophilus oryzae, 336 h, 60 mg/kg, 2 weeks, mean ± SE, read-out: Adult mortality (%)): 0.7 ± 0.7%
F1 Progeny count No. dead/total ([5]; Example 5, QRD1440, 25 ppm on wheat, further 6 weeks, replicates A, B, C): 0/37 and 0/62 and 0/90
14 Day adult mortality No. dead (total) ([5]; Example 5, QRD1440, 25 ppm on wheat, replicates A, B, C): 19/50 and 11/50 and 14/50
14 day Adult Mortality No. dead/total [5, 11]: 22/50 and 21/50 and 30/50
F1 Progeny count No. dead/total [5, 11]: 0/20 (2×) and 0/5
14 day Adult Mortality No. dead/total [5, 12]: 47/50 (2×) and 49/50
F1 Progeny count No. dead/total [5, 12]: 0/0
14 day Adult Mortality No. dead/total [5, 13]: 50/50
F1 Progeny count No. dead/total [5, 13]: 0/0
14 day Adult Mortality No. dead/total [5, 14]: 50/50
F1 Progeny count No. dead/total [5, 14]: 0/0
Live adult progeny ([5]; QRD1440, 25 mg/kg): 23.7 ± 9.0
Progeny reduction (%) ([5]; QRD1440, 25 mg/kg): 88.8%
Progeny reduction (%) ([5]; QRD1440, 25 mg/kg, listed as flavesone): 88%
Live adult progeny ([5]; QRD1440, 60 mg/kg): 0.0 ± 0.0
Progeny reduction (%) ([5]; QRD1440, 60 mg/kg): 100%
mortality at 25 mg/kg [5, 15]: 56.7 ± 4.1%
mortality at 60 mg/kg [5, 15]: 100%
Adult mortality (%) ([6]; 25 mg/kg, 2 weeks, mean ± SE): 22.7 ± 2.4%
Live adult progeny ([6]; 25 mg/kg, mean ± SE): 1.3 ± 0.7
Progeny reduction (%) ([6]; 25 mg/kg): 99.6%
Adult mortality (%) ([6]; 60 mg/kg, 2 weeks, mean ± SE): 91.3 ± 5.9%
Live adult progeny ([6]; 60 mg/kg, mean ± SE): 0.0 ± 0.0
Progeny reduction (%) ([6]; 60 mg/kg): 100%
mortality at 25 mg/kg ([6]; Oryzaephilus surinamensis, 336 h, 25 mg/kg, 2 weeks, mean ± SE, read-out: Adult mortality (%)): 22%
mortality at 60 mg/kg ([6]; Oryzaephilus surinamensis, 336 h, 60 mg/kg, 2 weeks, mean ± SE, read-out: Adult mortality (%)): 91%
Live adult progeny ([7]; 25 mg/kg, mean ± SE): 72.0 ± 20.3
Progeny reduction (%) ([7]; 25 mg/kg): 76.5%
Progeny reduction (%) ([7]; 25 mg/kg, listed as flavesone): ~75%
Live adult progeny ([7]; 60 mg/kg, mean ± SE): 0.0 ± 0.0
Progeny reduction (%) ([7]; 60 mg/kg): 100%
mortality at 25 mg/kg [7, 16]: 27.5 ± 17.5%
mortality at 60 mg/kg [7, 17]: 90%
mortality ([8]; Example 9, all application rates above 300 mg a.i./L, by 4 hours exposure): 100%
mortality at 300 µg/mL ([8]; Halotydeus destructor, Example 9, 4 hours of exposure, read-out: mortality (average)): 55%
mortality at 300 µg/mL ([8]; Halotydeus destructor, Example 9, by 8 hours of exposure, read-out: mortality): 100%
LC50 ([8]; Halotydeus destructor, Susceptible population, 24 hours exposure, read-out: LC50 (mg a.i./L)): 40.6 µg/mL (≈ 161 µM)
LC90 (mg a.i./L) [8, 18]: 142.55 mg a.i./L
LC99 (mg a.i./L) [8, 18]: 561.35 mg a.i./L
Live adult progeny ([9]; 25 mg/kg, mean ± SE): 83.7 ± 6.5
Progeny reduction (%) ([9]; 25 mg/kg): 75.7%
Progeny reduction (%) ([9]; 25 mg/kg, listed as flavesone): ~75%
Live adult progeny ([9]; 60 mg/kg, mean ± SE): 0.0 ± 0.0
Progeny reduction (%) ([9]; 60 mg/kg): 100%
mortality at 25 mg/kg [9, 16]: 3.3 ± 1.3%
mortality at 60 mg/kg [9, 17]: 62%
14 day Adult Mortality No. dead/total ([10]; 5 ppm on wheat): 0/50
F1 Progeny count No. dead/total ([10]; 5 ppm on wheat): 4/930 and 4/999 and 1/866
14 day Adult Mortality No. dead/total ([10]; 10 ppm on wheat): 6/50 (2×) and 8/50
F1 Progeny count No. dead/total ([10]; 10 ppm on wheat): 3/446 and 0/444 and 3/487
14 day Adult Mortality No. dead/total ([10]; 25 ppm on wheat): 50/50
F1 Progeny count No. dead/total ([10]; 25 ppm on wheat): 0/0
14 day Adult Mortality No. dead/total ([10]; 50 ppm on wheat): 50/50
F1 Progeny count No. dead/total ([10]; 50 ppm on wheat): 0/0
14 day Adult Mortality No. dead/total ([10]; 100 ppm on wheat): 50/50
F1 Progeny count No. dead/total ([10]; 100 ppm on wheat): 0/0
Live adult progeny ([10]; QRD14, 25 mg/kg, mean ± SE): 0.0 ± 0.0
Progeny reduction (%) ([10]; QRD14, 25 mg/kg): 100%
Live adult progeny ([10]; QRD14, 60 mg/kg, mean ± SE): 0.0 ± 0.0
Progeny reduction (%) ([10]; QRD14, 60 mg/kg): 100%
mortality at 25 mg/kg ([10]; Rhyzopertha dominica, 336 h, QRD14, 25 mg/kg, 2 weeks, mean ± SE, read-out: Adult mortality (%)): 98 ± 1.2%
mortality at 60 mg/kg ([10]; Rhyzopertha dominica, 336 h, QRD14, 60 mg/kg, 2 weeks, mean ± SE, read-out: Adult mortality (%)): 100%
